Measurements as given in patent US20110046160A1, “Novel Class of Spiro Piperidines for the Treatment of Neurodegenerative Diseases” (Pfizer, Inc., priority 2008, published 2011).

Biological target: T1, soluble human BACE (Homo sapiens, UniProt P56817)
T1 construct: cells secreting human recombinant soluble BACE; made in house; concentrated conditioned medium, crude or purified
Assay: Inhibition of BACE: beta-secretase cleavage of synthetic biotinylated APP substrate, ELISA readout
Type: biochemical
Conditions: 3 μM substrate, 0.05M sodium acetate (pH 4.5), 2% DMSO, 1 hour at 37° C., ELISA absorbance at 450 nm
Experimental: The substrate and test compounds are added to 384 well polypropylene plates. The reaction is initiated by the addition of soluble BACE enzyme to a final volume of 12.5 μL per well. […] Concentrated conditioned media from cells secreting human recombinant soluble BACE was titrated to provide a source of BACE enzyme. The cell media can be used as either a crude BACE prep or BACE can be purified using any number of techniques, including immobilized BACE inhibitor purification columns. The assay mixture is incubated for 1 hour at 37° C., and the reaction is quenched by the addition of an equal volume of 0.1M Tris, pH 8. Half of the quenched mix is incubated on clear streptavidin coated 384 well polystyrene plates for 1 hour. […] The readout, following assay development with TMB substrate and quenching with 0.09M sulfuric acid, is absorbance at 450 nm.

T1 sequence (P56817 46-457 limits assumed): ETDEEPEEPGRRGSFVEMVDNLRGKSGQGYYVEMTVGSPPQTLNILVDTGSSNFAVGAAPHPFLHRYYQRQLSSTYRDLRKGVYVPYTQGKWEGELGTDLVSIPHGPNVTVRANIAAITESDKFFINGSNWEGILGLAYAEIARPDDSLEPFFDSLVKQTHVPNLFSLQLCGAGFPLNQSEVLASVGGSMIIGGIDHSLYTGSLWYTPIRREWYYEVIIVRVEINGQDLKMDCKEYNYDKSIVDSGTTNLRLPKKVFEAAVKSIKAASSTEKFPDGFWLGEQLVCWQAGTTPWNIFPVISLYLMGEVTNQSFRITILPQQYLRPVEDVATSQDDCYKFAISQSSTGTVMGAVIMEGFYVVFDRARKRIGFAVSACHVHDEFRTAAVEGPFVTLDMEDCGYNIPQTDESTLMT

IC50	Structure (SMILES)
102 µM	CC(C)Oc1cccc(CN2CC[C@]3(CNS(=O)(=O)N3c3cccc(F)c3)C[C@@H]2C)n1 [Example 83, (5R,7S)-1-(3-fluorophenyl)-8-[(6-isopropoxypyridin-2-yl)methyl]-7-methyl-2-thia-1,3,8-triazaspiro[4.5]decane 2,2-dioxide]
1.51 µM	Cc1ccncc1-c1cccc(CN2CC[C@]3(CNS(=O)(=O)N3c3cccc(F)c3)C[C@@H]2C)c1 [Example 17, (5R,7S)-1-(3-fluorophenyl)-7-methyl-8-[3-(4-methylpyridin-3-yl)benzyl]-2-thia-1,3,8-triazaspiro[4.5]decane 2,2-dioxide]
